# From patent US11013784B2 (priority 2015, dated 2021)
# Tested on: SKOV3-Luc ovarian tumor cells
# Assay type: cell-based, human
compound,measurement,value
N.N.[Cl][Pt][Cl] [cisplatin],IC50,230 µM
